# Laboratory results taken from the kinase profiling compilation of Christmann-Franck et al. (2016).
# Key:
# Test in all cases: KINOMEscan competition binding
# Conditions in all cases: compound 10.0 µM
# ACVR2A (human) = ACVR2A (human) (UniProt P27037)
# ANKK1 (human) = ANKK1 (human) (UniProt Q8NFD2)
# AURKC (human) = AURKC (human) (UniProt Q9UQB9)
# CAMK2D (human) = CAMK2D (human) (UniProt Q13557)
# CDKL1 (human) = CDKL1 (human) (UniProt Q00532)
# CPK1 (P.falciparum) = test system: CPK1 (P.falciparum)
# DDR1 (human) = DDR1 (human) (UniProt Q08345)
# DSTYK (human) = DSTYK (human) (UniProt Q6XUX3)
# DYRK1B (human) = DYRK1B (human) (UniProt Q9Y463)
# [1] = test system: EGFR (human), P00533 [A750P; 747-749 del]
# EPHB6 (human) = EPHB6 (human) (UniProt O15197)
# FLT1 (human) = FLT1 (human) (UniProt P17948)
# FLT4 (human) = FLT4 (human) (UniProt P35916)
# HIPK4 (human) = HIPK4 (human) (UniProt Q8NE63)
# IRAK1 (human) = IRAK1 (human) (UniProt P51617)
# KDR (human) = KDR (human) (UniProt P35968)
# LIMK2 (human) = LIMK2 (human) (UniProt P53671)
# LRRK2 (human) = LRRK2 (human) (UniProt Q5S007)
# MAP2K2 (human) = MAP2K2 (human) (UniProt P36507)
# MAP2K4 (human) = MAP2K4 (human) (UniProt P45985)
# MAP2K7 (human) = MAP2K7 (human) (UniProt O14733)
# MAP3K4 (human) = MAP3K4 (human) (UniProt Q9Y6R4)
# MAPK3 (human) = MAPK3 (human) (UniProt P27361)
# MAPK8 (human) = MAPK8 (human) (UniProt P45983)
# MKNK2 (human) = MKNK2 (human) (UniProt Q9HBH9)
# NEK9 (human) = NEK9 (human) (UniProt Q8TD19)
# PAK7 (human) = PAK7 (human) (UniProt Q9P286)
# PIK3C2G (human) = PIK3C2G (human) (UniProt O75747)
# PIK3CG (human) = PIK3CG (human) (UniProt P48736)
# PKN1 (human) = PKN1 (human) (UniProt Q16512)
# PRKAA1 (human) = PRKAA1 (human) (UniProt Q13131)
# PRKAA2 (human) = PRKAA2 (human) (UniProt P54646)
# PRKCI (human) = PRKCI (human) (UniProt P41743)
# PRKD1 (human) = PRKD1 (human) (UniProt Q15139)
# RIOK1 (human) = RIOK1 (human) (UniProt Q9BRS2)
# RIPK2 (human) = RIPK2 (human) (UniProt O43353)
# SRPK2 (human) = SRPK2 (human) (UniProt P78362)
# TNK2 (human) = TNK2 (human) (UniProt Q07912)
# TYRO3 (human) = TYRO3 (human) (UniProt Q06418)
# YES1 (human) = YES1 (human) (UniProt P07947)
# DSTYK (human), sequence (Q6XUX3 whole entry, looked up): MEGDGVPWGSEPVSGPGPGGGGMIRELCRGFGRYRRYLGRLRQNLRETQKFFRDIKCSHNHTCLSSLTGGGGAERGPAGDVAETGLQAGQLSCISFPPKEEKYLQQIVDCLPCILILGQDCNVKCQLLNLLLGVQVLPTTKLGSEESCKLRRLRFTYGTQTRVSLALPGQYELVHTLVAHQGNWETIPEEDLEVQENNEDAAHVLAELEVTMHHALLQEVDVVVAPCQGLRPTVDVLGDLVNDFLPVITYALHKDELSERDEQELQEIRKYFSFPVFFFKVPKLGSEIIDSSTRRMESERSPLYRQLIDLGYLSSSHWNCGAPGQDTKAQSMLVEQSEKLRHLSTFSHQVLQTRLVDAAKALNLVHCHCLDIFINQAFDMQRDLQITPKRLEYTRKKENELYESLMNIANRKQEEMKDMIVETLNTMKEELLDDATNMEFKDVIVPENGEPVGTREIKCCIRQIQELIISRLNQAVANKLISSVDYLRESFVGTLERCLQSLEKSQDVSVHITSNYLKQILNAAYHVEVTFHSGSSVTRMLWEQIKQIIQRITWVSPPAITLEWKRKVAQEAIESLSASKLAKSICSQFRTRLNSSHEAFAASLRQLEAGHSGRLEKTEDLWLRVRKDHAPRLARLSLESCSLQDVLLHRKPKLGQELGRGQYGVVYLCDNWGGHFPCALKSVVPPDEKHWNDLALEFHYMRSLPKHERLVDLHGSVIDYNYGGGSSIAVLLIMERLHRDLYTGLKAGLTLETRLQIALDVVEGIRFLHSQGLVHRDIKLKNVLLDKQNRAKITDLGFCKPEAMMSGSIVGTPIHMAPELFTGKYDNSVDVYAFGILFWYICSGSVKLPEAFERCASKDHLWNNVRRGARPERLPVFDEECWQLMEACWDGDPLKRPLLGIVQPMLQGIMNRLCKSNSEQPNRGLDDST
# TNK2 (human), sequence (Q07912 whole entry, looked up): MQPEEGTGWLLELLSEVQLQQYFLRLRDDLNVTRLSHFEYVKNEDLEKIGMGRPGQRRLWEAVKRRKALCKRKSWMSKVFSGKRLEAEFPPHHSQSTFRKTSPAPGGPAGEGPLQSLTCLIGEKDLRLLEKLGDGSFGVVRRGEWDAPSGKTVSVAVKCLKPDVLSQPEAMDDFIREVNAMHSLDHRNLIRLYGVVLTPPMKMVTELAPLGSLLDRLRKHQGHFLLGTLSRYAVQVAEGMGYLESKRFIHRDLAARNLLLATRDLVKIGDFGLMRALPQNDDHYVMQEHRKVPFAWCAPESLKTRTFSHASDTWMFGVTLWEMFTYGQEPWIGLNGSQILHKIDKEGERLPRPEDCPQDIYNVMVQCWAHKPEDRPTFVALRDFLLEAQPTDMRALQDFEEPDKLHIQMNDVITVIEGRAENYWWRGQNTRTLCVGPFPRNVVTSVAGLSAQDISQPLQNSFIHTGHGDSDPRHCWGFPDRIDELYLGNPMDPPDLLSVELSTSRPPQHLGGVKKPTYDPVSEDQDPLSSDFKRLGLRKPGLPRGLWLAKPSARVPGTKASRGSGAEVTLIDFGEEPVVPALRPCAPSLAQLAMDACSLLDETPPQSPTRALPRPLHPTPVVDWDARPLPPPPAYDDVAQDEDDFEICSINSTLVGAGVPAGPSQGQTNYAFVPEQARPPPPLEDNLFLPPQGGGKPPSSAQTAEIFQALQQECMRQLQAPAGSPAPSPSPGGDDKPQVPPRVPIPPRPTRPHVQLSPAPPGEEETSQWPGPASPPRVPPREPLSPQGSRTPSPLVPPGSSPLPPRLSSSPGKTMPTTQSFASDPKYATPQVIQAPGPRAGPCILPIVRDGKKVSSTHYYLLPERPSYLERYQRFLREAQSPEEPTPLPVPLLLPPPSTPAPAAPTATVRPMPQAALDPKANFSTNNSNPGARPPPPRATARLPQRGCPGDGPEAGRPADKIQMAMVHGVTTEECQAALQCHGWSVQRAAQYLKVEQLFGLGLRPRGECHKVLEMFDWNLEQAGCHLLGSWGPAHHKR
# FLT1 (human), sequence (P17948 whole entry, looked up): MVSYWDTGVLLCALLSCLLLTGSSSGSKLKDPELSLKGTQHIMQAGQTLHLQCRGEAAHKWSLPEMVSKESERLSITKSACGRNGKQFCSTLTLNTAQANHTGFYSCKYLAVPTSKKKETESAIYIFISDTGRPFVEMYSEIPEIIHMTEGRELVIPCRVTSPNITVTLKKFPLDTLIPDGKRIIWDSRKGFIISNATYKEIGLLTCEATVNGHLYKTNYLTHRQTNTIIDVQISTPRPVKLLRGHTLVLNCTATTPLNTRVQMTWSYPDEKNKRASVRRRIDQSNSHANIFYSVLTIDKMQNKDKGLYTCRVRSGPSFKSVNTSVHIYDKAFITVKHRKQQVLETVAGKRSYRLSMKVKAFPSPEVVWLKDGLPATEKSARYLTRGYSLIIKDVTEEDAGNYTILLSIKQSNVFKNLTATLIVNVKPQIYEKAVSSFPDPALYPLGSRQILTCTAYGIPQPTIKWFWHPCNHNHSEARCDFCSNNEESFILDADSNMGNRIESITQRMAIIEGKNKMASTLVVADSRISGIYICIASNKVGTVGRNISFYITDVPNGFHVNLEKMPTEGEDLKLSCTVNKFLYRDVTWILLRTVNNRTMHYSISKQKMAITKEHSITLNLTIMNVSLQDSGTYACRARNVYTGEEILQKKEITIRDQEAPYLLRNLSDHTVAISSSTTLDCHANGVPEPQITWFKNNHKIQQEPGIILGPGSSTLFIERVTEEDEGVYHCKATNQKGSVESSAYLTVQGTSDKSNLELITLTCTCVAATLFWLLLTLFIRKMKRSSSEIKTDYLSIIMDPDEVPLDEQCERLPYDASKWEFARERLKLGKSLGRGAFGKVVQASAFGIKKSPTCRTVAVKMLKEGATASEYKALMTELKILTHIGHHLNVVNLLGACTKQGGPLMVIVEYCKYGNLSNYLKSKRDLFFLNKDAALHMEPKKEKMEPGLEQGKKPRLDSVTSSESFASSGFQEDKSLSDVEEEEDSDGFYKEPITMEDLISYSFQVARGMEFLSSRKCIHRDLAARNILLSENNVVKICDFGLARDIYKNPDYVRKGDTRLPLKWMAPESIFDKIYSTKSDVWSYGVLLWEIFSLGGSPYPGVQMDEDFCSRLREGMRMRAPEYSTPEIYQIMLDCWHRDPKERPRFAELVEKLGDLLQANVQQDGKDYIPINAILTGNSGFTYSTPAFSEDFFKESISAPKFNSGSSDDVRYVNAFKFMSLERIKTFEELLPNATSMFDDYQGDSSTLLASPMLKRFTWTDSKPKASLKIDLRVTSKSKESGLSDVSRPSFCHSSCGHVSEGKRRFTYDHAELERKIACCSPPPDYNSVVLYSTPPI
# MAPK3 (human), sequence (P27361 whole entry, looked up): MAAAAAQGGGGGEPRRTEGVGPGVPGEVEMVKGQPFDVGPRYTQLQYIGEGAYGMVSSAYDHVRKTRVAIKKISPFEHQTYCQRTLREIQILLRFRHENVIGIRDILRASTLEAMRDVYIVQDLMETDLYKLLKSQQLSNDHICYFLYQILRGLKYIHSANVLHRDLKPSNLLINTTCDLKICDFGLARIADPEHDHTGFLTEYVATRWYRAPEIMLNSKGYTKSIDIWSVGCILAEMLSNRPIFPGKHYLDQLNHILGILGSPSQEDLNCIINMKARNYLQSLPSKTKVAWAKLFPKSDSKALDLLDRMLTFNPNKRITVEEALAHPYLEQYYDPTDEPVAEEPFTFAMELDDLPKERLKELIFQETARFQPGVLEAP
# AURKC (human), sequence (Q9UQB9 whole entry, looked up): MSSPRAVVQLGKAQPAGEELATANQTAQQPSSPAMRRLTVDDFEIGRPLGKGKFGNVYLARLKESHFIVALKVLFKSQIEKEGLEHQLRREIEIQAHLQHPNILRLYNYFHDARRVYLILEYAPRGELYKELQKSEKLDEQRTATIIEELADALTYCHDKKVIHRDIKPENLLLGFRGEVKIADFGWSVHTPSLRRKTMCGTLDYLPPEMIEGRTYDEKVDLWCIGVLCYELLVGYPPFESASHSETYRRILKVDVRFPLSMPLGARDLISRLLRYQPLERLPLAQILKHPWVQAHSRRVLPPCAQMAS
# RIOK1 (human), sequence (Q9BRS2 whole entry, looked up): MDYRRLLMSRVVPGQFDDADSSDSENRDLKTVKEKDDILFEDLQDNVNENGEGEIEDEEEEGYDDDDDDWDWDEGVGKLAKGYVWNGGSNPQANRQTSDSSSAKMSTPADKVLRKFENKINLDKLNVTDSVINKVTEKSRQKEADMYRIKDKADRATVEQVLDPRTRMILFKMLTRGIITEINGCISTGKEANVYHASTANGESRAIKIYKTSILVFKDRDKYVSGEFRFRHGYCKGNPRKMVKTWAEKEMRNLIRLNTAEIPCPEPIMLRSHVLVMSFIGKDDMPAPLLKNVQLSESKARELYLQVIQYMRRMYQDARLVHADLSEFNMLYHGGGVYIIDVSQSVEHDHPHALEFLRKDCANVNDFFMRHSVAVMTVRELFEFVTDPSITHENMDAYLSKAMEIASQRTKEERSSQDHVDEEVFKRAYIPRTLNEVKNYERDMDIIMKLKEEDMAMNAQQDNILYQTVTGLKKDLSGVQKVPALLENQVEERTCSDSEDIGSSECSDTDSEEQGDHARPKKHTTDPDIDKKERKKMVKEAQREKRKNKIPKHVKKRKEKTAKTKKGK
# MAPK8 (human), sequence (P45983 whole entry, looked up): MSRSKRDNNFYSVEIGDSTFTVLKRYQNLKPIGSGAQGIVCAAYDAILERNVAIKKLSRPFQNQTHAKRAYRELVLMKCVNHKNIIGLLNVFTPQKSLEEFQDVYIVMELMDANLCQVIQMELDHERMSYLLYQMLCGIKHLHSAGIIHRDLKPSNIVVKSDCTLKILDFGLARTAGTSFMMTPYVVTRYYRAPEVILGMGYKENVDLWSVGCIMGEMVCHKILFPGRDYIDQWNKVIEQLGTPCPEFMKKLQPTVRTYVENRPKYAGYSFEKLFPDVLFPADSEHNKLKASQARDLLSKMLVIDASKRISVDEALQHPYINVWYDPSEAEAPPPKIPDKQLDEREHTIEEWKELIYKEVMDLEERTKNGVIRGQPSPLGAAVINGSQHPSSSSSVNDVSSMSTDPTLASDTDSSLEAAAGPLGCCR
smiles,measurement,setting,value
COc1cc2ncnc(Nc3cccc(Cl)c3)c2cc1OC,"kinase still bound, per cent of control",ACVR2A (human),92%
same,"kinase still bound, per cent of control",ANKK1 (human),63%
same,"kinase still bound, per cent of control",AURKC (human),49%
same,"kinase still bound, per cent of control",CAMK2D (human),61%
same,"kinase still bound, per cent of control",CDKL1 (human),90%
same,"kinase still bound, per cent of control",CPK1 (P.falciparum),34%
same,"kinase still bound, per cent of control",DDR1 (human),1.9%
same,"kinase still bound, per cent of control",DSTYK (human),43%
same,"kinase still bound, per cent of control",DYRK1B (human),70%
same,"kinase still bound, per cent of control",[1],1.4%
same,"kinase still bound, per cent of control",EPHB6 (human),16%
same,"kinase still bound, per cent of control",FLT1 (human),75%
same,"kinase still bound, per cent of control",FLT4 (human),79%
same,"kinase still bound, per cent of control",HIPK4 (human),6.1%
same,"kinase still bound, per cent of control",IRAK1 (human),5.6%
same,"kinase still bound, per cent of control",KDR (human),31%
same,"kinase still bound, per cent of control",LIMK2 (human),100%
same,"kinase still bound, per cent of control",LRRK2 (human),79%
same,"kinase still bound, per cent of control",MAP2K2 (human),25%
same,"kinase still bound, per cent of control",MAP2K4 (human),85%
same,"kinase still bound, per cent of control",MAP2K7 (human),73%
same,"kinase still bound, per cent of control",MAP3K4 (human),83%
same,"kinase still bound, per cent of control",MAPK3 (human),88%
same,"kinase still bound, per cent of control",MAPK8 (human),38%
same,"kinase still bound, per cent of control",MKNK2 (human),3.9%
same,"kinase still bound, per cent of control",NEK9 (human),78%
same,"kinase still bound, per cent of control",PAK7 (human),90%
same,"kinase still bound, per cent of control",PIK3C2G (human),43%
same,"kinase still bound, per cent of control",PIK3CG (human),44%
same,"kinase still bound, per cent of control",PKN1 (human),94%
same,"kinase still bound, per cent of control",PRKAA1 (human),100%
same,"kinase still bound, per cent of control",PRKAA2 (human),100%
same,"kinase still bound, per cent of control",PRKCI (human),80%
same,"kinase still bound, per cent of control",PRKD1 (human),89%
same,"kinase still bound, per cent of control",RIOK1 (human),65%
same,"kinase still bound, per cent of control",RIPK2 (human),19%
same,"kinase still bound, per cent of control",SRPK2 (human),62%
same,"kinase still bound, per cent of control",TNK2 (human),61%
same,"kinase still bound, per cent of control",TYRO3 (human),23%
same,"kinase still bound, per cent of control",YES1 (human),38%
COc1cc2c(Nc3ccc(NC(=O)c4ccccc4)cc3)ncnc2cc1OCCCN1CCOCC1,"kinase still bound, per cent of control",ACVR2A (human),100%
same,"kinase still bound, per cent of control",ANKK1 (human),17%
same,"kinase still bound, per cent of control",AURKC (human),23%
same,"kinase still bound, per cent of control",CAMK2D (human),100%
same,"kinase still bound, per cent of control",CDKL1 (human),81%
same,"kinase still bound, per cent of control",CPK1 (P.falciparum),47%
same,"kinase still bound, per cent of control",DDR1 (human),36%
same,"kinase still bound, per cent of control",DSTYK (human),34%
same,"kinase still bound, per cent of control",DYRK1B (human),96%
same,"kinase still bound, per cent of control",[1],22%
same,"kinase still bound, per cent of control",EPHB6 (human),2%
same,"kinase still bound, per cent of control",FLT1 (human),56%
same,"kinase still bound, per cent of control",FLT4 (human),83%
same,"kinase still bound, per cent of control",HIPK4 (human),4.9%
same,"kinase still bound, per cent of control",IRAK1 (human),66%
same,"kinase still bound, per cent of control",KDR (human),26%
same,"kinase still bound, per cent of control",LIMK2 (human),78%
same,"kinase still bound, per cent of control",LRRK2 (human),73%
same,"kinase still bound, per cent of control",MAP2K2 (human),0.1%
same,"kinase still bound, per cent of control",MAP2K4 (human),100%
same,"kinase still bound, per cent of control",MAP2K7 (human),100%
same,"kinase still bound, per cent of control",MAP3K4 (human),62%
same,"kinase still bound, per cent of control",MAPK3 (human),100%
same,"kinase still bound, per cent of control",MAPK8 (human),67%
same,"kinase still bound, per cent of control",MKNK2 (human),4.2%
same,"kinase still bound, per cent of control",NEK9 (human),100%
same,"kinase still bound, per cent of control",PAK7 (human),94%
same,"kinase still bound, per cent of control",PIK3C2G (human),14%
same,"kinase still bound, per cent of control",PIK3CG (human),100%
same,"kinase still bound, per cent of control",PKN1 (human),100%
same,"kinase still bound, per cent of control",PRKAA1 (human),62%
same,"kinase still bound, per cent of control",PRKAA2 (human),72%
same,"kinase still bound, per cent of control",PRKCI (human),94%
same,"kinase still bound, per cent of control",PRKD1 (human),99%
same,"kinase still bound, per cent of control",RIOK1 (human),100%
same,"kinase still bound, per cent of control",RIPK2 (human),2.8%
same,"kinase still bound, per cent of control",SRPK2 (human),86%
same,"kinase still bound, per cent of control",TNK2 (human),5.9%
same,"kinase still bound, per cent of control",TYRO3 (human),60%
same,"kinase still bound, per cent of control",YES1 (human),16%
N#Cc1cc(-c2ccnc(Nc3ccc(-n4cnc(-c5cccnc5)n4)cc3)n2)cc(N2CCOCC2)c1,"kinase still bound, per cent of control",ACVR2A (human),16%
same,"kinase still bound, per cent of control",ANKK1 (human),55%
same,"kinase still bound, per cent of control",AURKC (human),40%
same,"kinase still bound, per cent of control",CAMK2D (human),24%
same,"kinase still bound, per cent of control",CDKL1 (human),34%
same,"kinase still bound, per cent of control",CPK1 (P.falciparum),48%
same,"kinase still bound, per cent of control",DDR1 (human),100%
same,"kinase still bound, per cent of control",DSTYK (human),76%
same,"kinase still bound, per cent of control",DYRK1B (human),10%
same,"kinase still bound, per cent of control",[1],62%
same,"kinase still bound, per cent of control",EPHB6 (human),14%
same,"kinase still bound, per cent of control",FLT1 (human),48%
same,"kinase still bound, per cent of control",FLT4 (human),84%
same,"kinase still bound, per cent of control",HIPK4 (human),13%
same,"kinase still bound, per cent of control",IRAK1 (human),9.3%
same,"kinase still bound, per cent of control",KDR (human),75%
same,"kinase still bound, per cent of control",LIMK2 (human),60%
same,"kinase still bound, per cent of control",LRRK2 (human),94%
same,"kinase still bound, per cent of control",MAP2K2 (human),62%
same,"kinase still bound, per cent of control",MAP2K4 (human),2.8%
same,"kinase still bound, per cent of control",MAP2K7 (human),100%
same,"kinase still bound, per cent of control",MAP3K4 (human),50%
same,"kinase still bound, per cent of control",MAPK3 (human),100%
same,"kinase still bound, per cent of control",MAPK8 (human),0.05%
same,"kinase still bound, per cent of control",MKNK2 (human),34%
same,"kinase still bound, per cent of control",NEK9 (human),63%
same,"kinase still bound, per cent of control",PAK7 (human),21%
same,"kinase still bound, per cent of control",PIK3C2G (human),100%
same,"kinase still bound, per cent of control",PIK3CG (human),0.75%
same,"kinase still bound, per cent of control",PKN1 (human),48%
same,"kinase still bound, per cent of control",PRKAA1 (human),84%
same,"kinase still bound, per cent of control",PRKAA2 (human),94%
same,"kinase still bound, per cent of control",PRKCI (human),88%
same,"kinase still bound, per cent of control",PRKD1 (human),66%
same,"kinase still bound, per cent of control",RIOK1 (human),3.8%
same,"kinase still bound, per cent of control",RIPK2 (human),53%
same,"kinase still bound, per cent of control",SRPK2 (human),34%
same,"kinase still bound, per cent of control",TNK2 (human),61%
same,"kinase still bound, per cent of control",TYRO3 (human),87%
same,"kinase still bound, per cent of control",YES1 (human),79%
